Data from patent US20160061843A1, “BIOMARKER ASSAY” (Respiratory Clinical Trials Ltd, priority 2014, published 2016).

Key:
Assay type in all cases: cell-based, human
[1] = tested on: intracellular pSTAT1 in macrophages; experiment: Flow cytometry of IFNγ-induced STAT1 phosphorylation in induced sputum macrophages from COPD subjects; details: IFNγ 10 ng/ml
Source text: Sputum samples were collected from 15 COPD subjects on three or four repeat visits (i.e., three to four samples per subject). In each case, the subject inhaled 3% (w/v) saline solution mist through the mouthpiece of an ultrasonic nebulizer for five minutes. Sputum mobilization techniques were utilized to assist with the production of a sputum sample, such as diaphragmatic breathing, huffs, percussion, vibrations and positive expiratory pressure techniques. The subject was asked to attempt to cough sputum into a sputum collection pot. If the FEV1 fell by <10% after inhalation of 3% (w/v) saline, the participant was asked to inhale the next saline concentration (4% w/v) and repeat the procedure detailed above. Again if the FEV1 fell by <10% after inhalation of 4% (w/v) saline, the participant was asked to inhale the next saline concentration (5% w/v) and repeat the procedure detailed above. The sputum collected after 15 minutes of nebulization (i.e., 3×5 minutes) was processed in the laboratory for flow cytometric analysis. Induced sputum was kept on ice and processed as soon as possible but no more than two hours from collection. Sputum plugs were selected for processing and suitably transferred into a centrifuge tube. The volume of the selected sputum sample was noted and an equal volume of DPBS added. To liquefy the sample Sputolysin® was added to a final concentration of 0.05% (w/v). The tube was placed on a plate shaker (300 rpm) for 30 minutes at room temperature to disperse the cells. After 30 minutes the sample was mixed gently with a Pasteur pipette and left to shake for a further 15 minutes. The sample was centrifuged at 1200 rpm for 10 minutes at room temperature. Sputum supernatant was collected and used to measure cytokines/chemokines of interest. […] The supernatant was removed and the cell pellet resuspended in 500 μl staining buffer ready for flow cytometric analysis. […] Levels of STAT phosphorylation in the macrophage population were determined by taking the MFI of the stimulated sample and dividing by the MFI for the non-stimulated sample.

[2] = tested on: intracellular pSTAT3 in sputum macrophages; experiment: Flow cytometry of IFNγ-induced STAT3 phosphorylation in induced sputum macrophages from COPD subjects; details: % stimulation = stimulated MFI/non-stimulated MFI×100; IFNγ 10 ng/ml
Method: FIG. 10 is a bar graph showing STAT3 phosphorylation in sputum macrophages following stimulation with IFNγ in the absence or presence of increasing concentrations of a MK2 inhibitor. % stimulation was calculated as stimulated MFI/non-stimulated MFI×100.
The methods of Example 1 were repeated exactly, but this time measuring intracellular STAT3 phosphorylation using an Alexa Fluor® 647 conjugated anti-pSTAT3 antibody. In addition, a MK2 inhibitor was tested instead of a JAK inhibitor compound. Increasing concentrations of inhibitor were tested (1 μM, 10 μM and 100 μM); the same conditions otherwise applied.

[3] = tested on: intracellular pSTAT1(Y701) in macrophages; experiment: Flow cytometry of IFNγ-induced STAT1(Y701) phosphorylation in induced sputum macrophages from smokers; details: unstimulated MFI 345.5; sputum from two smokers
Method: FIG. 11A is a line graph showing the stimulation of STAT1(Y701) phosphorylation in macrophages and neutrophils from induced sputum by IFNγ, and inhibition of such phosphorylation after pre-incubation with increasing concentrations of a MK2 inhibitor followed by IFNγ stimulation. FIG. 11B is a bar graph showing phosphorylation of STAT1 (Y701) in macrophages in the presence and absence of the MK2 inhibitor expressed as % stimulation. % stimulation was calculated as stimulated MFI/non-stimulated MFI×100.
Induced sputum samples were obtained as described in Example 1. In this study, however, the subjects were smokers. Sputum was collected from two subjects.
Sputum samples were processed as described in Example 1.
Inducing STAT1(Y701) Phosphorylation STAT phosphorylation was induced as described in Example 1. In this study, however, the inhibitor compound was a MK2 inhibitor […].
Samples were stained as described in Example 1. However, in this study, and in order to specifically detect STAT1(Y701) phosphorylation, an Alexa Fluor® 647 conjugated anti-pSTAT1(Y701) antibody was used.
Levels of STAT1(Y701) phosphorylation in the macrophage population were determined by taking the MFI of the stimulated sample and dividing by the MFI for the non-stimulated sample. A value of greater than one (>1) indicated positive staining.

Compound	inhibition of STAT1 phosphorylation (in words) ([1]; inhibitor final concentration 10^−5 M)	MFI of intracellular pSTAT1 in macrophages after incubation with IFNγ+JAK inhibitor ([1]; inhibitor final concentration 10^−5 M, unstimulated MFI 120.7±23.92, stimulated MFI 196.7±33.97)	MFI of intracellular pSTAT1 in macrophages after incubation with IFNγ ([1]; 20 min, 37° C., unstimulated MFI 120.7±23.92, 15 COPD subjects)	increase of intracellular pSTAT3 in sputum macrophages following incubation with IFNγ [2]	MFI of intracellular pSTAT1(Y701) in macrophages stimulated with IFNγ [3]
C[C@@H]1CCN(C(=O)N2CCCC2)C[C@@H]1N(C)c1ncnc2[nH]ccc12 [JAK inhibitor, PF 956980]	complete inhibition	118.3±24.44			
IFNγ: cytokine used as stimulator of STAT phosphorylation			196.7±33.97	100%	511
